Where “and” joins values, the source holds several entries; their conditions need not be identical. Identical values can stand only once.
Tests used:
HIV-1 protease [1] = molecular target: T1, HIV-1 protease (Human immunodeficiency virus type 1 group M subtype B, UniProt P04585); experiment: biochemical; settings: for inhibition at 0.123 µM: read-out: HIV-1 Protease % Inhib, dose 0.123 uM; for inhibition at 0.37 µM: read-out: HIV-1 Protease % Inhib, dose 0.370 uM; for inhibition at 1.1 µM: read-out: HIV-1 Protease % Inhib, dose 1.100 uM; for inhibition at 3.3 µM: read-out: HIV-1 Protease % Inhib, dose 3.300 uM; for inhibition at 10 µM: read-out: HIV-1 Protease % Inhib, dose 10.000 uM; for inhibition at 30 µM: read-out: HIV-1 Protease % Inhib, dose 30.000 uM
Outline: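 Biotinylated, FITC-labeled peptide substrate (20 μl of 0.2 μM) incubated with HIV-1 protease (10 μl of 0.1 μM) and compound in 0.1 M sodium acetate pH 5.5, 1.0 M NaCl, 0.05% NP-40, 1 h, room temperature, dark. Streptavidin beads then capture uncleaved substrate; filtered labeled product read by fluorescence, giving percent inhibition.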

HIV-1 protease [2] = molecular target: T1, HIV-1 protease; experiment: biochemical; settings: read-out: HIV-1 FITC KI
Outline: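 Ki from two-fold serial inhibitor dilutions (24–48 concentrations) with 40 nM HIV-1 protease stock and 200 μM substrate stock, 90 min at room temperature; stopped with avidin beads. Reference inhibitor run in parallel; Ki by nonlinear least-squares fit.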

## O=C(Nc1cccc(C(c2c(O)c3c(oc2=O)CCCCCC3)C2CC2)c1)c1ccc(F)cc1 (centres unmarked) [Example 210, Benzamide, N-[3-[cyclopropyl(5,6,7,8,9,10-hexahydro4-hydroxy-2-oxo-2H-cycloocta[b]pyran-3-yl)methyl]phenyl]-4-fluoro-]
HIV-1 protease [1]
  inhibition at 0.123 µM: 19.7%
  inhibition at 0.37 µM: 31.5%
  inhibition at 1.1 µM: 58.1%
  inhibition at 3.3 µM: 77.6%
  inhibition at 10 µM: 88.8%
  inhibition at 30 µM: 97.3%
HIV-1 protease [2]
  Ki: 55 nM

## O=C(Nc1cccc(C(c2c(O)c3c(oc2=O)CCCCCC3)C2CC2)c1)c1ccccc1 (centres unmarked) [Example 211, Benzamide, N-[3-[cyclopropyl(5,6,7,8,9,10-hexahydro-4-hydroxy-2-oxo-2H-cycloocta[b]pyran-3-yl)methyl]phenyl]]
HIV-1 protease [1]
  inhibition at 0.37 µM: 37.2%
  inhibition at 1.1 µM: 64.5%
  inhibition at 3.3 µM: 89.6%
  inhibition at 10 µM: 101%
  inhibition at 30 µM: 101%
HIV-1 protease [2]
  Ki: 42 nM

## CC(C)(C)OC(=O)N[C@@H](Cc1c[nH]cn1)C(=O)Nc1cccc(C(c2c(O)c3c(oc2=O)CCCCCC3)C2CC2)c1 (stereo partly drawn) [Example 213, Carbamic acid, [2-[[3-[cyclopropyl(5,6,7,8,9,10-hexahydro-4-hydroxy-2-oxo-2H-cycloocta[b]pyran-3-yl)methyl]phenyl]amino]-1-(S)-(1H-imidazol-4-ylmethyl)-2-oxoethyl]-, 1,1-dimethylethyl ester]
HIV-1 protease [1]; dose 0.123 uM
  HIV-1 Protease % Inhib: 74.4%
HIV-1 protease [1]
  inhibition at 0.37 µM: 82.2%
  inhibition at 1.1 µM: 94.5%
  inhibition at 3.3 µM: 102%
  inhibition at 10 µM: 109%
  inhibition at 30 µM: 99.3%
HIV-1 protease [2]
  Ki: 3.5 nM

## CC(C)(C)OC(=O)NCCC(=O)Nc1cccc(C(c2c(O)c3c(oc2=O)CCCCC3)C2CC2)c1 (centres unmarked) [Example 214, Carbamic acid. [3-[[3-[cyclopropyl(2,5,6,7,8,9-hexahydro-4-hydroxy-2-oxocyclohepta[b]pyran-3-yl)methyl]phenyl]amino]-3-oxopropyl]-, 1,1-dimethylethyl ester]
HIV-1 protease [1]
  inhibition at 0.123 µM: 18.7%
  inhibition at 0.37 µM: 54%
  inhibition at 1.1 µM: 74.1%
  inhibition at 3.3 µM: 88.6%
  inhibition at 10 µM: 95.2%
  inhibition at 30 µM: 96.2%
HIV-1 protease [2]
  Ki: 19.3 nM

## O=C(CCn1ccc2ccccc21)Nc1cccc(C(c2c(O)c3c(oc2=O)CCCCC3)C2CC2)c1 (centres unmarked) [Example 215, 1H-Indole-1-propanamide, N-[3-[cyclopropyl(2,5,6,7,8,9-hexahydro-4-hydroxy-2-oxocyclohepta[b]pyran-3-yl)methyl]phenyl]-]
HIV-1 protease [1]
  inhibition at 0.123 µM: 13.5%
  inhibition at 0.37 µM: 43.3%
  inhibition at 1.1 µM: 76.1%
  inhibition at 3.3 µM: 97.9%
  inhibition at 10 µM: 107%
  inhibition at 30 µM: 98.5%
HIV-1 protease [2]
  Ki: 27.8 nM

## CCC(c1cccc(NC(=O)CCNC(=O)OC(C)(C)C)c1)c1c(O)c2c(oc1=O)CCCCCC2 (centres unmarked) [Example 219, Carbamic acid, [3-[[3-[1-(5,6,7,8,9,10-hexahydro4-hydroxy-2-oxo-2H-cycloocta[b]pyran-3-yl)propyl]phenyl]amino]-3-oxopropyl]-, 1,1-dimethylethyl ester]
HIV-1 protease [1]
  inhibition at 0.123 µM: 52.1%
  inhibition at 0.37 µM: 81%
  inhibition at 1.1 µM: 92.5%
  inhibition at 3.3 µM: 100%
  inhibition at 10 µM: 109%
  inhibition at 30 µM: 97.3%
HIV-1 protease [2]
  Ki: 10.4 nM

## CCOC(=O)Nc1cccc(C(c2c(O)c3c(oc2=O)CCCCCC3)C2CC2)c1 (centres unmarked) [Example 226, [3-[Cyclopropyl(5,6,7,8,9,10-hexahydro4-hydroxy-2-oxo-2H-cycloocta[b]pyran-3-yl)methyl]phenyl]-, ethyl ester carbamic acid]
HIV-1 protease [1]
  inhibition at 0.123 µM: 14.2%
  inhibition at 0.37 µM: 43.7%
  inhibition at 1.1 µM: 74.1%
  inhibition at 3.3 µM: 87.6%
  inhibition at 10 µM: 101%
  inhibition at 30 µM: 104%
HIV-1 protease [2]
  Ki: 18.9 nM

## O=c1oc2c(c(O)c1[C@H](c1ccccc1)C1CC1)CCCCCC2 [Example 229, (-)-(S)-3-(Cyclopropylphenylmethyl)-5,6,7,8,9,10-hexahydro-4-hydroxy-2H-cyclo[b]pyran-2-one]
HIV-1 protease [1]
  inhibition at 0.123 µM: 16.9%
  inhibition at 0.37 µM: 54.3%
  inhibition at 1.1 µM: 88.8%
  inhibition at 3.3 µM: 103%
  inhibition at 10 µM: 108%
  inhibition at 30 µM: 105%
HIV-1 protease [2]
  Ki: 10.6 nM and 11.9 nM and 16.2 nM

## O=c1oc2c(c(O)c1[C@H](c1cccc(NS(=O)(=O)c3ccc(F)cc3)c1)C1CC1)CCCCCC2 [Example 252, (-)-N-[3-[Cyclopropyl(5,6,7,8,9,10-hexahydro4-hydroxy-2-oxo-2H-cycloocta[b]pyran-3-yl)methyl]phenyl]-4-fluoro-benzenesulfonamide]
HIV-1 protease [1]
  inhibition at 0.123 µM: 100%
  inhibition at 0.37 µM: 108%
  inhibition at 1.1 µM: 111%
  inhibition at 3.3 µM: 112%
  inhibition at 10 µM: 116%
  inhibition at 30 µM: 109%
HIV-1 protease [2]
  Ki: 1.6 nM and 1.1 nM

## Cn1cnc(S(=O)(=O)Nc2cccc([C@@H](c3c(O)c4c(oc3=O)CCCCCC4)C3CC3)c2)c1 [Example 254, (-)-N-[3-[Cyclopropyl(5,6,7,8,9,10-hexahydro-4-hydroxy-2-oxo-2H-cycloocta[b]pyran-3-yl)methyl]phenyl]-1-methyl-1H-imidazole-4-sulfonamide]
HIV-1 protease [1]; dose 0.123 uM
  HIV-1 Protease % Inhib: 82.28%
HIV-1 protease [1]; dose 0.370 uM
  HIV-1 Protease % Inhib: 97.98%
HIV-1 protease [1]; dose 1.100 uM
  HIV-1 Protease % Inhib: 107.75%
HIV-1 protease [1]; dose 3.300 uM
  HIV-1 Protease % Inhib: 111.05%
HIV-1 protease [1]; dose 10.000 uM
  HIV-1 Protease % Inhib: 112.1%
HIV-1 protease [1]; dose 30.000 uM
  HIV-1 Protease % Inhib: 103.1%
HIV-1 protease [2]
  Ki: 0.65 nM

## O=c1oc2c(c(O)c1[C@H](c1cccc(NS(=O)(=O)c3cccc4cccnc34)c1)C1CC1)CCCCCC2 [Example 256, (-)-N-[3-[Cyclopropyl(5,6,7,8,9,10-hexahydro-4-hydroxy-2-oxo-2H-cycloocta[b]pyran-3-yl)methyl]phenyl]-8-quinolinesulfonamide]
HIV-1 protease [1]
  inhibition at 0.123 µM: 82.5%
  inhibition at 0.37 µM: 91.3%
  inhibition at 1.1 µM: 99%
  inhibition at 3.3 µM: 95%
  inhibition at 10 µM: 101%
  inhibition at 30 µM: 96.1%
HIV-1 protease [2]
  Ki: 0.42 nM

## O=c1oc2c(c(O)c1[C@@H](c1cccc(NS(=O)(=O)c3cccc4cccnc34)c1)C1CC1)CCCCCC2 [Example 260, (+)-N-[3-[Cyclopropyl(5,6,7,8,9, 10-hexahydro-4-hydroxy-2-oxo-2H-cycloocta[b]pyran-3-yl)methyl]phenyl]-8-quinolinesulfonamide]
HIV-1 protease [1]
  inhibition at 0.123 µM: 73.8%
  inhibition at 0.37 µM: 91.7%
  inhibition at 1.1 µM: 99%
  inhibition at 3.3 µM: 106%
  inhibition at 10 µM: 102%
  inhibition at 30 µM: 96.9%
HIV-1 protease [2]
  Ki: 0.93 nM

## CC(C)(C)c1ccc(S(=O)(=O)Nc2cccc(C(c3c(O)c4c(oc3=O)CCCCCC4)C3CC3)c2)cc1 (centres unmarked) [Example 265, N-[3-[Cyclopropyl(5,6,7,8,9,10-hexahydro-4hydroxy-2-oxo-2H-cycloocta[b]pyran-3-yl)methyl]phenyl]-4-(1,1-dimethylethyl)-benzenesulfonamide]
HIV-1 protease [1]
  inhibition at 0.123 µM: 25.3%
  inhibition at 0.37 µM: 54.8%
  inhibition at 1.1 µM: 76.9%
  inhibition at 3.3 µM: 86.1%
  inhibition at 10 µM: 100%
  inhibition at 30 µM: 98.3%
HIV-1 protease [2]
  Ki: 31.5 nM

## O=c1oc2c(c(O)c1C(c1cccc(NS(=O)(=O)c3ccc(Cl)c(Cl)c3)c1)C1CC1)CCCCCC2 (centres unmarked) [Example 269, 3,4-Dichloro-N-[3-[cyclopropyl(5,6,7,8,9,10-hexahydro-4-hydroxy-2-oxo-2H-cycloocta[b]pyran-3-yl)methyl]phenyl]-benzenesulfonamide]
HIV-1 protease [1]
  inhibition at 0.123 µM: 77.1%
  inhibition at 0.37 µM: 95.7%
  inhibition at 1.1 µM: 112%
  inhibition at 3.3 µM: 114%
  inhibition at 10 µM: 125%
  inhibition at 30 µM: 114%
HIV-1 protease [2]
  Ki: 5.3 nM and 2.9 nM

## O=c1oc2c(c(O)c1C(c1cccc(NS(=O)(=O)c3c(F)c(F)c(F)c(F)c3F)c1)C1CC1)CCCCCC2 (centres unmarked) [Example 278, N-[3-[Cyclopropyl(5,6,7,8,9,10-hexahydro-4-hydroxy-2-oxo-2H-cycloocta[b]pyran-3-yl)methyl]phenyl]-2,3,4,5,6-pentafluoro-benzenesulfonamide]
HIV-1 protease [1]
  inhibition at 0.123 µM: 36.3%
  inhibition at 0.37 µM: 78.2%
  inhibition at 1.1 µM: 94.7%
  inhibition at 3.3 µM: 101%
  inhibition at 10 µM: 102%
  inhibition at 30 µM: 110%
HIV-1 protease [2]
  Ki: 13.6 nM

## O=c1oc2c(c(O)c1C(c1cccc(NS(=O)(=O)c3cccc(C(F)(F)F)c3)c1)C1CC1)CCCCCC2 (centres unmarked) [Example 280, N-[3-[Cyclopropyl(5,6,7,8,9,10-hexahydro-4-hydroxy-2-oxo-2H-cycloocta[b]pyran-3-yl)methyl]phenyl]-3-(trifluoromethyl)-benzenesulfonamide]
HIV-1 protease [1]
  inhibition at 0.123 µM: 69.8%
  inhibition at 0.37 µM: 95.1%
  inhibition at 1.1 µM: 101%
  inhibition at 3.3 µM: 110%
  inhibition at 10 µM: 110%
  inhibition at 30 µM: 114%
HIV-1 protease [2]
  Ki: 3 nM

## O=c1oc2c(c(O)c1C(c1cccc(NS(=O)(=O)c3ccccc3F)c1)C1CC1)CCCCCC2 (centres unmarked) [Example 281, N-[3-[Cyclopropyl(5,6,7,8,9,10-hexahydro-4-hydroxy-2-oxo-2H-cycloocta[b]pyran-3-yl)methyl]phenyl]-2-fluoro-benzenesulfonamide]
HIV-1 protease [1]
  inhibition at 0.123 µM: 55.5%
  inhibition at 0.37 µM: 93.5%
  inhibition at 1.1 µM: 99.3%
  inhibition at 3.3 µM: 109%
  inhibition at 10 µM: 105%
  inhibition at 30 µM: 101%
HIV-1 protease [2]
  Ki: 10.6 nM

## O=c1oc2c(c(O)c1C(c1cccc(NS(=O)(=O)c3cc(Cl)cc(Cl)c3O)c1)C1CC1)CCCCCC2 (centres unmarked) [Example 284]
HIV-1 protease [1]
  inhibition at 0.123 µM: 37.5%
  inhibition at 0.37 µM: 77%
  inhibition at 1.1 µM: 99.8%
  inhibition at 3.3 µM: 107%
  inhibition at 10 µM: 107%
  inhibition at 30 µM: 104%
HIV-1 protease [2]
  Ki: 12.2 nM

— patent US5686486A, “4-hydroxy-benzopyran-2-ones and 4-hydroxy-cycloalkyl[b]pyran-2-ones useful to treat retroviral infections” (priority 1995, dated 1997)
